The values that follow are results of earlier work, collected in patent publication US20190381003A1, “PHARMACEUTICAL COMPOSITION FOR TREATMENT OF INFLAMMATORY EAR DISEASES, METHOD FOR PRODUCING SAME AND METHOD FOR TREATMENT USING SAME COMPOSITION” (LIMITED LIABILITY COMPANY "KONSORTSIUM-PIK", priority 2017, published 2019).

SMILES strings stand for the structures.

For series [1] the following is noted: following oral administration.

`CCCNC(C)C(=O)Nc1c(C)csc1C(=O)OC` (racemic) [Articaine, (RS)-Methyl 4-methyl-3-(2-propylaminopropanoylamino)thiophene-2-carboxylate]: the persistence of anaesthesia (following drug administration) is 1 to 5 h. Moreover, the “analgesic effects, potency vs. lidocaine” value (vs. lidocaine) was 2 fold. The “analgesic effects, potency vs. procaine” value (vs. procaine) is listed as 6 fold.

In the case of `Cc1c(C(C)C)c(=O)n(-c2ccccc2)n1C` [Propyphenazone, 1,5-Dimethyl-2-phenyl-4-propan-2-yl-pyrazol-3-one], the “time to maximal blood level” value in series [1] is no more than 30 min.
